# Key:
# Assay in all cases: Cytotoxicity assay (MTS, 72 hours)
# [1] = tested on: WM793; assay type: cell-based, human
# Description: (§1) Tumor cell lines were maintained in DMEM with 10% fetal bovine serum (FBS), 100 microg/ml streptomycin, and 100 IU/ml penicillin in 5% CO2 at 37° C.
# WM793 human melanoma tumor cell lines were used from different stages of progression and their biological and molecular analyses. See Satyamoorthy et al. (1997).
# (§2) For the cytotoxicity assays, 1,500 tumor cells were plated into 96-well flat-bottom tissue culture plates in complete medium (see Tables 2 and 3). After 20 hours fresh media containing different concentrations of compounds disclosed herein added. Cell number was counted after 72 hours by using MTS assay (Promega CellTiter AQ Non-Radioactive Cell Proliferation Assay kit, Madison, Wis., USA) by measuring absorbance at 490 nm with a 96-well plate reader. Data are presented as IC50 values derived from relative inhibition of proliferation plus SD of eight measurements. The number of cells in the presence of DMSO was taken as 100%.
# [2] = tested on: Colo357-FG; assay type: cell-based, human
# Description: as §1
# Colo357-FG and Colo357-L3: Colo357-FG, a fast-growing variant produced regional lymph node metastasis in 58% of nude mice after subcutaneous implantation and growth. It also produced hepatic metastasis in 64% and pulmonary metastasis in 43% of nude mice after intrasplenic implantation of tumor cells. See Vezeridis et al. (1990).
# as §2
# [3] = tested on: HD2; assay type: cell-based; conditions: Table 3, Myeloma
# Description: as §2, with “After” for “For the cytotoxicity assays, 1,500 tumor cells were plated into 96-well flat-bottom tissue culture plates in complete medium (see Tables 2 and 3). After”
# [4] = tested on: SK-MEL-28; assay type: cell-based
# Description: as §1, §2
# [5] = tested on: MIA-PaCa-2; assay type: cell-based
# Description: as §1, §2
# [6] = tested on: HuT78; assay type: cell-based
# Description: as §1, §2
# [7] = tested on: HH; assay type: cell-based; conditions: Table 3, CTCL
# Description: as §1, §2
# [8] = tested on: LNZ-428; assay type: cell-based; conditions: Table 3, GBM
# Description: as §1, §2
# [9] = tested on: PC3; assay type: cell-based
# Description: as §1, §2
# [10] = tested on: MDA-PATC-53; assay type: cell-based
# Description: as §1, §2
# [11] = tested on: SU.86.86; assay type: cell-based
# Description: as §1, §2
# [12] = tested on: 4T1; assay type: cell-based
# Description: as §1, §2
# [13] = tested on: 231; assay type: cell-based; conditions: Table 3, Breast
# Description: as §1, §2
# [14] = tested on: Ovcar-5; assay type: cell-based
# Description: as §1, §2
# [15] = tested on: BT483; assay type: cell-based
# Description: as §1, §2
# [16] = tested on: U87MG; assay type: cell-based; conditions: Table 3, GBM
# Description: as §1, §2
# [17] = tested on: WM35; assay type: cell-based
# Description: as §1, §2
# [18] = tested on: MDA-PATC-108; assay type: cell-based; conditions: Table 3, Panc
# Description: as §1, §2
# [19] = tested on: A375; assay type: cell-based
# Description: as §1, §2
# [20] = tested on: 231-MB; assay type: cell-based; conditions: Table 3, Breast
# Description: as §1, §2
# [21] = tested on: BT-58; assay type: cell-based; conditions: Table 3, Ependymoma
# Description: as §1, §2
# [22] = tested on: D423 enol; assay type: cell-based; conditions: Table 3, GBM
# Description: as §1, §2
# [23] = tested on: LN319; assay type: cell-based; conditions: LN-319, Table 3, GBM
# Description: as §1, §2
# [24] = tested on: MDA-PATC-148; assay type: cell-based; conditions: Table 3, Panc
# Description: as §1, §2
# [25] = tested on: D423; assay type: cell-based; conditions: Table 3, GBM
# Description: as §1, §2
# [26] = tested on: MDA-PATC-153; assay type: cell-based; conditions: Table 3, Panc
# Description: as §1, §2
# [27] = Homo sapiens, COLO 357/FG, 72 h, Table 2, Colo357-FG
# [28] = MDA-PATC53, 72 h, Table 2, MDA-PATC-53
structure (smiles),measurement,setting,value
"C[C@H](NC(=O)/C(C#N)=C/c1cccc(Br)n1)c1ccccc1 [WP1066, reference compound]",IC50,"[1]; Table 3, Melanoma",2100 nM
same,IC50,"[2]; Table 2, Colo357-FG",2100 nM
same,IC50,"[2]; Table 3, Panc",2000 nM
same,IC50,[3],1700 nM
same,IC50,"[4]; Table 3, Melanoma",2000 nM
same,IC50,"[5]; Table 3, Panc",1700 nM
same,IC50,"[6]; Table 3, CTCL",1900 nM
same,IC50,[7],2300 nM
same,IC50,[8],1500 nM
same,IC50,"[9]; Table 3, Prostate",2300 nM
same,IC50,"[10]; Table 2, MDA-PATC-53",2400 nM
same,IC50,"[10]; Table 3, Panc",2400 nM
same,IC50,"[11]; Table 3, Panc",2500 nM
same,IC50,"[12]; Table 3, Breast",4400 nM
same,IC50,[13],4800 nM
same,IC50,"[14]; Table 3, Ovarian",1700 nM
same,IC50,"[15]; Table 3, Breast",4200 nM
same,IC50,[16],1700 nM
same,IC50,"[17]; Table 3, Melanoma",1300 nM
same,IC50,[18],2400 nM
same,IC50,"[19]; Table 3, Melanoma",1500 nM
same,IC50,[20],1200 nM
same,IC50,[21],1800 nM
CCC(CC)(NC(=O)/C(C#N)=C/c1cccc(Cl)n1)c1ccc(OCCOCCN2CCN(C)CC2)cc1 [WP1732],IC50,"[1]; Homo sapiens, WM793, Table 3, Melanoma",1800 nM
same,IC50,"[2]; Homo sapiens, COLO 357/FG, 72 h, Table 3, Panc",2600 nM
same,IC50,[3],3800 nM
same,IC50,"[4]; Homo sapiens, SK-MEL-28, Table 3, Melanoma",1800 nM
same,IC50,"[5]; Homo sapiens, MIA PaCa-2, Table 3, Panc",1600 nM
same,IC50,"[6]; Homo sapiens, HuT78, Table 3, CTCL",2900 nM
same,IC50,"[7]; Homo sapiens, HH",3200 nM
same,IC50,[8],2300 nM
same,IC50,"[9]; Homo sapiens, PC-3, Table 3, Prostate",1400 nM
same,IC50,[22],2500 nM
same,IC50,[23],2800 nM
same,IC50,"[10]; MDA-PATC53, 72 h, Table 3, Panc",1800 nM
same,IC50,"[11]; Homo sapiens, SU.86.86, Table 3, Panc",1500 nM
same,IC50,"[12]; Mus musculus, 4T1, Table 3, Breast",4500 nM
same,IC50,[13],2800 nM
same,IC50,[24],1900 nM
same,IC50,[25],1400 nM
same,IC50,"[14]; Homo sapiens, OVCAR-5, Table 3, Ovarian",1700 nM
same,IC50,"[15]; Homo sapiens, BT-483, Table 3, Breast",2300 nM
same,IC50,"[16]; Homo sapiens, U-87 MG",1800 nM
same,IC50,[26],2600 nM
same,IC50,"[17]; WM35, Table 3, Melanoma",2300 nM
same,IC50,[18],1600 nM
same,IC50,"[19]; Homo sapiens, A-375, Table 3, Melanoma",1100 nM
same,IC50,[20],1500 nM
same,IC50,[21],1800 nM
"CCC(CC)(NC(=O)/C(C#N)=C/c1cccc(Cl)n1)c1ccc(OCCN2CCOCC2)cc1 [WP 1721, (E)-3-(6-chloropyridin-2-yl)-2-cyano-N-(3-(4-(2-morpholinoethoxy)phenyl)pentan-3-yl)acrylamide]",IC50,[2]; [27],1100 nM
same,IC50,[10]; [28],1100 nM
"CCN(CC)CCOc1ccc(C(CC)(CC)NC(=O)/C(C#N)=C/c2cccc(Cl)n2)cc1 [WP 1722, (E)-3-(6-chloropyridin-2-yl)-2-cyano-N-(3-(4-(2-(diethylamino)ethoxy)phenyl)pentan-3-yl)acrylamide]",IC50,"[2]; Table 2, Colo357-FG",1200 nM
same,IC50,"[10]; Table 2, MDA-PATC-53",1100 nM
"CCC(CC)(NC(=O)/C(C#N)=C/c1cccc(Cl)n1)c1ccc(OCCOCCN2CCOCC2)cc1 [WP 1723, (E)-3-(6-chloropyridin-2-yl)-2-cyano-N-(3-(4-(2-(2-morpholinoethoxy)ethoxy)phenyl)pentan-3-yl)acrylamide]",IC50,[2]; [27],1200 nM
same,IC50,[10]; [28],1400 nM
"CCC(CC)(NC(=O)/C(C#N)=C/c1ccccn1)c1ccc(OCCOCCN2CCOCC2)cc1 [WP 1724, (E)-2-cyano-N-(3-(4-(2-(2-morpholinoethoxy)ethoxy)phenyl)pentan-3-yl)-3-(pyridin-2-yl)acrylamide]",IC50,[2]; [27],2800 nM
same,IC50,[10]; [28],3500 nM
"CCN(CC)CCOc1ccc(C(CC)(CC)NC(=O)/C(C#N)=C/c2ccccn2)cc1 [WP 1727, (E)-2-cyano-N-(3-(4-(2-(diethylamino)ethoxy)phenyl)pentan-3-yl)-3-(pyridin-2-yl)acrylamide]",IC50,[2]; [27],2200 nM
same,IC50,[10]; [28],3000 nM
"CCC(CC)(NC(=O)/C(C#N)=C/c1cccc(Cl)n1)c1ccc(OCCOCCN2CCN(C)CC2)cc1 [WP 1731, (E)-3-(6-chloropyridin-2-yl)-2-cyano-N-(3-(4-(2-(2-(4-methylpiperazin-1-yl)ethoxy)ethoxy)phenyl)pentan-3-yl)acrylamide]",IC50,[2]; [27],1500 nM
same,IC50,[10]; [28],1800 nM
"CCCC(CCC)(NC(=O)/C(C#N)=C/c1cccc(Cl)n1)c1ccc(OCCN2CCOCC2)cc1 [WP 1733, (E)-3-(6-chloropyridin-2-yl)-2-cyano-N-(4-(4-(2-morpholinoethoxy)phenyl)heptan-4-yl)acrylamide]",IC50,[2]; [27],950 nM
same,IC50,[10]; [28],1100 nM
"CCCC(CCC)(NC(=O)/C(C#N)=C/c1cccc(Cl)n1)c1ccc(OCCN(CC)CC)cc1 [WP 1734, (E)-3-(6-chloropyridin-2-yl)-2-cyano-N-(4-(4-(2-(diethylamino)ethoxy)phenyl)heptan-4-yl)acrylamide]",IC50,[2]; [27],1500 nM
same,IC50,[10]; [28],1600 nM
CCC(CC)(NC(=O)/C(C#N)=C/c1cccc(Cl)n1)c1ccc(OCCN2CCOCC2)cc1 [WP 1793],IC50,"[2]; Table 2, Colo357-FG",800 nM
same,IC50,"[10]; Table 2, MDA-PATC-53",1000 nM
CCN(CC)CCOc1ccc(C(CC)(CC)NC(=O)/C(C#N)=C/c2cccc(Cl)n2)cc1 [WP 1794],IC50,[2]; [27],600 nM
same,IC50,[10]; [28],900 nM
